Data published in US20260109688A1, “NOVEL ANTIBIOTIC COMPOUND” (SINTEF TTO AS, priority 2022, published 2026).
In brackets after ≈: the same amount, converted by molar mass.

Columns and labels:
E. faecium CCUG 37832 = experiment: In vitro MIC bioassay (broth microdilution, 384 well); format: cell-based, Enterococcus faecium; conditions: Mueller-Hinton broth, 2.7% DMSO
Experimental: (§1) Minimal inhibitory concentrations against a selection of Gram-positive indicator organisms (MICs) were determined according to Clinical and Laboratory Standards Institute protocols by microdilution tests using in a 384 well format. The indicator strains were incubated in TSB medium over night until OD600-0.4, then diluted to OD600=0.1 in TSB medium and further 45× in assay medium (Mueller-Hinton broth, Difco). Inoculated medium was distributed into assay plates. Inoculated wells were added a 2× dilution series of either isolated compound or vancomycin (reference) diluted in DMSO, giving a final DMSO concentration in each well of 2.7%, and final concentrations of active compound between 0 and 540 μg/ml (23 different concentrations). Four parallels were assayed for each compound and concentration. 0.5 mg of the compound produced by strain M1152ΔmatAB (P08-G05_C16) was purified on preparative HPLC, and the pure compound was tested in bioassay against a panel of strains. The indicator organisms were M. luteus ATCC 9341, Staphylococcus aureus ATCC 29213, Staphylococcus aureus ATCC 43300 (MRSA), Enterococcus faecium CCUG 37832, Enterococcus faecium CTC 492.

E. faecium CTC 492 = experiment: as above; format: cell-based, Enterococcus faecium; conditions: Mueller-Hinton broth, 2.7% DMSO
Experimental: as §1

## CN[C@H](CC(C)C)C(=O)N[C@H]1C(=O)N[C@@H](CC(N)=O)C(=O)N[C@H]2C(=O)N[C@H]3C(=O)N[C@H](C(=O)N[C@H](C(=O)O)c4cc(O)cc(O)c4-c4cc3ccc4O)[C@H](O)c3ccc(c(Cl)c3)Oc3cc2cc(c3O[C@@H]2O[C@H](CO)[C@@H](O)[C@H](O)[C@H]2O[C@H]2C[C@](C)(N)[C@H](O)[C@H](C)O2)Oc2ccc(cc2Cl)[C@H]1O [Vancomycin, vancomycin]
E. faecium CCUG 37832
  MIC70: E. faecium CCUG 37832: 270 µg/mL (≈ 186 µM)
E. faecium CTC 492
  MIC70: E. faecium CTC 492: 1.06 µg/mL (≈ 0.731 µM)
